The numbers were not newly measured in patent US6768024B1, “Triamine derivative melanocortin receptor ligands and methods of using same” (Lion Bioscience AG, priority 2000, dated 2004), which cites them from elsewhere.

The test system of one data set is rodent models. Conditions: normal, Zucker fatty and diet-induced obesity rodent models.
In the next data set the test system is rats. The note with it: IP, ICV.
In a further data set the test system is human subjects. Conditions: pilot phase I.

`CC(C)CC(N(C)C)C1(c2ccc(Cl)cc2)CCC1` (stereo not drawn) [Sibutramine]: in the data set on rodent models, the body weight result is listed as “lower body weight”.

Consider “Ac-Nle-Gln-His-(D)-Phe-Arg-(D)-Trp-Gly-NH2 [HP228]”, for which, in the data set with rats, the “hypophagia and weight loss” value was “notable hypophagia and weight loss”.

For the compound MELANOTAN-II, the penile erections result in the data set on human subjects was “cause penile erections”.
